Experimental data taken from patent publication US10875898B2, “Bioactive protein, use thereof and method for its production” (Koppert B.V., priority 2014, dated 2020).

System: B. cinerea
Test: infection of tomato leaves by the pathogen B. cinerea
Format: in vivo, Botrytis cinerea
Settings: 10 μL applied to tomato leaf 2 hours before B. cinerea spores; up to 72 hr after inoculation
Procedure: FIG. 8: Effect of purified HYTLO1 application on the infection of tomato leaves by the pathogen B. cinerea. 10 μL of a solution of HYTLO1 were applied to tomato leaves and 2 hours later 10 μL of a B. cinerea spore suspension 1×10^6/ml were applied on the same spot. The measures were taken 72 hours post inoculation. The standard deviation bars were obtained from at least three different experiments, with five replicates and a total of 15 treated leaves per treatment. In order to determine if purified HYTLO1 is able to protect the plant from foliar infection by a pathogenic fungus, the protein was tested on tomato grown-up plants against Botrytis cinerea.

**Q.** Which “concentration of HYTLO1 that significantly reduced the size of the necrotic area” value does the source give for “HYTLO1: about 7 KDa Type II hydrophobin protein from Trichoderma longibrachiatum strain MK1, 71 aa, SEQ ID NO: 1” here?
**A.** above 1.25 μM
